From patent US8192962B2, “Processes for detecting toxic substances” (Daikin Industries, Ltd., priority 2001, dated 2012)

System: Stress protein genes
Test: DNA chip mRNA expression in yeast, stress protein genes (Table 6)
Type: cell-based, Saccharomyces cerevisiae S288C
Outline: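 Untreated cultures served as reference for log-phase S288C yeast given a growth-inhibiting, non-lethal toxicant dose for 2 h at 25° C. in YPD. Gene expression was measured on a whole-genome DNA chip from Cy3/Cy5-labeled cDNA.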

## CN(C)C(=S)SSC(=S)N(C)C [(10), Tetramethylthiuram disulfide]
Yeast gene YAL005C
  The level of expressed mRNA in the presence of chemical substance/The level of expressed mRNA in the absence of chemical substance: 1.8
Yeast gene YAL015C
  The level of expressed mRNA in the presence of chemical substance/The level of expressed mRNA in the absence of chemical substance: 2.7
Yeast gene YBL075C
  The level of expressed mRNA in the presence of chemical substance/The level of expressed mRNA in the absence of chemical substance: 6.7
Yeast gene YBL093C
  The level of expressed mRNA in the presence of chemical substance/The level of expressed mRNA in the absence of chemical substance: 1.1
Yeast gene YBR044C
  The level of expressed mRNA in the presence of chemical substance/The level of expressed mRNA in the absence of chemical substance: 1.2
Yeast gene YBR054W
  The level of expressed mRNA in the presence of chemical substance/The level of expressed mRNA in the absence of chemical substance: 1.2
Yeast gene YBR067C
  The level of expressed mRNA in the presence of chemical substance/The level of expressed mRNA in the absence of chemical substance: 1.0
Yeast gene YBR072W
  The level of expressed mRNA in the presence of chemical substance/The level of expressed mRNA in the absence of chemical substance: 43.4
Yeast gene YBR169C
  The level of expressed mRNA in the presence of chemical substance/The level of expressed mRNA in the absence of chemical substance: 4.3
Yeast gene YCL035C
  The level of expressed mRNA in the presence of chemical substance/The level of expressed mRNA in the absence of chemical substance: 2.3
Yeast gene YCR021C
  The level of expressed mRNA in the presence of chemical substance/The level of expressed mRNA in the absence of chemical substance: 1.0
Yeast gene YCR060W
  The level of expressed mRNA in the presence of chemical substance/The level of expressed mRNA in the absence of chemical substance: 1.1
Yeast gene YCR083W
  The level of expressed mRNA in the presence of chemical substance/The level of expressed mRNA in the absence of chemical substance: 1.8
Yeast gene YDL022W
  The level of expressed mRNA in the presence of chemical substance/The level of expressed mRNA in the absence of chemical substance: 1.8
Yeast gene YDL025C
  The level of expressed mRNA in the presence of chemical substance/The level of expressed mRNA in the absence of chemical substance: 4.5
Yeast gene YDR033W
  The level of expressed mRNA in the presence of chemical substance/The level of expressed mRNA in the absence of chemical substance: 1.0
Yeast gene YDR077W
  The level of expressed mRNA in the presence of chemical substance/The level of expressed mRNA in the absence of chemical substance: 0.7
Yeast gene YDR098C
  The level of expressed mRNA in the presence of chemical substance/The level of expressed mRNA in the absence of chemical substance: 1.5
Yeast gene YDR155C
  The level of expressed mRNA in the presence of chemical substance/The level of expressed mRNA in the absence of chemical substance: 1.3
Yeast gene YDR258C
  The level of expressed mRNA in the presence of chemical substance/The level of expressed mRNA in the absence of chemical substance: 13.3
Yeast gene YDR293C
  The level of expressed mRNA in the presence of chemical substance/The level of expressed mRNA in the absence of chemical substance: 1.2
Yeast gene YDR436W
  The level of expressed mRNA in the presence of chemical substance/The level of expressed mRNA in the absence of chemical substance: 1.1
Yeast gene YDR513W
  The level of expressed mRNA in the presence of chemical substance/The level of expressed mRNA in the absence of chemical substance: 3.1
Yeast gene YDR519W
  The level of expressed mRNA in the presence of chemical substance/The level of expressed mRNA in the absence of chemical substance: 1.2
Yeast gene YEL030W
  The level of expressed mRNA in the presence of chemical substance/The level of expressed mRNA in the absence of chemical substance: 2.5
Yeast gene YEL039C
  The level of expressed mRNA in the presence of chemical substance/The level of expressed mRNA in the absence of chemical substance: 1.2
Yeast gene YER042W
  The level of expressed mRNA in the presence of chemical substance/The level of expressed mRNA in the absence of chemical substance: 2.1
Yeast gene YER057C
  The level of expressed mRNA in the presence of chemical substance/The level of expressed mRNA in the absence of chemical substance: 1.4
Yeast gene YER103W
  The level of expressed mRNA in the presence of chemical substance/The level of expressed mRNA in the absence of chemical substance: 9.0
Yeast gene YER125W
  The level of expressed mRNA in the presence of chemical substance/The level of expressed mRNA in the absence of chemical substance: 1.2
Yeast gene YFL014W
  The level of expressed mRNA in the presence of chemical substance/The level of expressed mRNA in the absence of chemical substance: 5.8
Yeast gene YFL016C
  The level of expressed mRNA in the presence of chemical substance/The level of expressed mRNA in the absence of chemical substance: 2.9
Yeast gene YFL020C
  The level of expressed mRNA in the presence of chemical substance/The level of expressed mRNA in the absence of chemical substance: 1.4
Yeast gene YFR052W
  The level of expressed mRNA in the presence of chemical substance/The level of expressed mRNA in the absence of chemical substance: 3.0
Yeast gene YGL073W
  The level of expressed mRNA in the presence of chemical substance/The level of expressed mRNA in the absence of chemical substance: 2.4
Yeast gene YGL115W
  The level of expressed mRNA in the presence of chemical substance/The level of expressed mRNA in the absence of chemical substance: 1.2
Yeast gene YGL181W
  The level of expressed mRNA in the presence of chemical substance/The level of expressed mRNA in the absence of chemical substance: 2.3
Yeast gene YGR088W
  The level of expressed mRNA in the presence of chemical substance/The level of expressed mRNA in the absence of chemical substance: 3.2
Yeast gene YHL028W
  The level of expressed mRNA in the presence of chemical substance/The level of expressed mRNA in the absence of chemical substance: 0.4
Yeast gene YHL046C
  The level of expressed mRNA in the presence of chemical substance/The level of expressed mRNA in the absence of chemical substance: 2.1
Yeast gene YHR030C
  The level of expressed mRNA in the presence of chemical substance/The level of expressed mRNA in the absence of chemical substance: 2.5
Yeast gene YHR057C
  The level of expressed mRNA in the presence of chemical substance/The level of expressed mRNA in the absence of chemical substance: 1.2
Yeast gene YHR104W
  The level of expressed mRNA in the presence of chemical substance/The level of expressed mRNA in the absence of chemical substance: 2.3
Yeast gene YIL011W
  The level of expressed mRNA in the presence of chemical substance/The level of expressed mRNA in the absence of chemical substance: 0.5
Yeast gene YIL033C
  The level of expressed mRNA in the presence of chemical substance/The level of expressed mRNA in the absence of chemical substance: 1.3
Yeast gene YIR037W
  The level of expressed mRNA in the presence of chemical substance/The level of expressed mRNA in the absence of chemical substance: 3.8
Yeast gene YIR038C
  The level of expressed mRNA in the presence of chemical substance/The level of expressed mRNA in the absence of chemical substance: 4.5
Yeast gene YJL128C
  The level of expressed mRNA in the presence of chemical substance/The level of expressed mRNA in the absence of chemical substance: 1.7
Yeast gene YJL158C
  The level of expressed mRNA in the presence of chemical substance/The level of expressed mRNA in the absence of chemical substance: 0.5
Yeast gene YJL159W
  The level of expressed mRNA in the presence of chemical substance/The level of expressed mRNA in the absence of chemical substance: 1.2
Yeast gene YJL165C
  The level of expressed mRNA in the presence of chemical substance/The level of expressed mRNA in the absence of chemical substance: 1.0
Yeast gene YJR045C
  The level of expressed mRNA in the presence of chemical substance/The level of expressed mRNA in the absence of chemical substance: 3.0
Yeast gene YJR090C
  The level of expressed mRNA in the presence of chemical substance/The level of expressed mRNA in the absence of chemical substance: 1.2
Yeast gene YKL161C
  The level of expressed mRNA in the presence of chemical substance/The level of expressed mRNA in the absence of chemical substance: 1.7
Yeast gene YKL163W
  The level of expressed mRNA in the presence of chemical substance/The level of expressed mRNA in the absence of chemical substance: 1.6
Yeast gene YKL164C
  The level of expressed mRNA in the presence of chemical substance/The level of expressed mRNA in the absence of chemical substance: 0.7
Yeast gene YKL210W
  The level of expressed mRNA in the presence of chemical substance/The level of expressed mRNA in the absence of chemical substance: 2.9
Yeast gene YKR053C
  The level of expressed mRNA in the presence of chemical substance/The level of expressed mRNA in the absence of chemical substance: 1.8
Yeast gene YLL024C
  The level of expressed mRNA in the presence of chemical substance/The level of expressed mRNA in the absence of chemical substance: 2.4
Yeast gene YLL026W
  The level of expressed mRNA in the presence of chemical substance/The level of expressed mRNA in the absence of chemical substance: 6.6
Yeast gene YLL039C
  The level of expressed mRNA in the presence of chemical substance/The level of expressed mRNA in the absence of chemical substance: 1.5
Yeast gene YLL060C
  The level of expressed mRNA in the presence of chemical substance/The level of expressed mRNA in the absence of chemical substance: 23.2
Yeast gene YLR006C
  The level of expressed mRNA in the presence of chemical substance/The level of expressed mRNA in the absence of chemical substance: 1.1
Yeast gene YLR109W
  The level of expressed mRNA in the presence of chemical substance/The level of expressed mRNA in the absence of chemical substance: 2.7
Yeast gene YLR259C
  The level of expressed mRNA in the presence of chemical substance/The level of expressed mRNA in the absence of chemical substance: 2.6
Yeast gene YML007W
  The level of expressed mRNA in the presence of chemical substance/The level of expressed mRNA in the absence of chemical substance: 2.5
Yeast gene YML070W
  The level of expressed mRNA in the presence of chemical substance/The level of expressed mRNA in the absence of chemical substance: 3.9
Yeast gene YMR021C
  The level of expressed mRNA in the presence of chemical substance/The level of expressed mRNA in the absence of chemical substance: 1.3
Yeast gene YMR173W
  The level of expressed mRNA in the presence of chemical substance/The level of expressed mRNA in the absence of chemical substance: 8.2
Yeast gene YMR186W
  The level of expressed mRNA in the presence of chemical substance/The level of expressed mRNA in the absence of chemical substance: 1.3
Yeast gene YNL064C
  The level of expressed mRNA in the presence of chemical substance/The level of expressed mRNA in the absence of chemical substance: 1.8
Yeast gene YNL160W
  The level of expressed mRNA in the presence of chemical substance/The level of expressed mRNA in the absence of chemical substance: 2.7
Yeast gene YNL241C
  The level of expressed mRNA in the presence of chemical substance/The level of expressed mRNA in the absence of chemical substance: 7.4
Yeast gene YNR076W
  The level of expressed mRNA in the presence of chemical substance/The level of expressed mRNA in the absence of chemical substance: 2.5
Yeast gene YOL064C
  The level of expressed mRNA in the presence of chemical substance/The level of expressed mRNA in the absence of chemical substance: 2.7
Yeast gene YOL161C
  The level of expressed mRNA in the presence of chemical substance/The level of expressed mRNA in the absence of chemical substance: 2.0
Yeast gene YOR008C
  The level of expressed mRNA in the presence of chemical substance/The level of expressed mRNA in the absence of chemical substance: 1.0
Yeast gene YOR009W
  The level of expressed mRNA in the presence of chemical substance/The level of expressed mRNA in the absence of chemical substance: 0.5
Yeast gene YOR010C
  The level of expressed mRNA in the presence of chemical substance/The level of expressed mRNA in the absence of chemical substance: 0.7
Yeast gene YOR027W
  The level of expressed mRNA in the presence of chemical substance/The level of expressed mRNA in the absence of chemical substance: 4.0
Yeast gene YOR208W
  The level of expressed mRNA in the presence of chemical substance/The level of expressed mRNA in the absence of chemical substance: 2.0
Yeast gene YPL059W
  The level of expressed mRNA in the presence of chemical substance/The level of expressed mRNA in the absence of chemical substance: 1.3
Yeast gene YPL106C
  The level of expressed mRNA in the presence of chemical substance/The level of expressed mRNA in the absence of chemical substance: 1.8
Yeast gene YPL140C
  The level of expressed mRNA in the presence of chemical substance/The level of expressed mRNA in the absence of chemical substance: 0.9
Yeast gene YPL194W
  The level of expressed mRNA in the presence of chemical substance/The level of expressed mRNA in the absence of chemical substance: 3.1
Yeast gene YPL223C
  The level of expressed mRNA in the presence of chemical substance/The level of expressed mRNA in the absence of chemical substance: 16.5
Yeast gene YPL240C
  The level of expressed mRNA in the presence of chemical substance/The level of expressed mRNA in the absence of chemical substance: 2.6
Yeast gene YPR005C
  The level of expressed mRNA in the presence of chemical substance/The level of expressed mRNA in the absence of chemical substance: 2.0
Yeast gene YPR026W
  The level of expressed mRNA in the presence of chemical substance/The level of expressed mRNA in the absence of chemical substance: 3.1
